According to ChEMBL document CHEMBL3817761, “Chenopodium album metabolites act as dual topoisomerase inhibitors and induce apoptosis in the MCF7 cell line” (Medchemcomm, 2016):

System: MCF7
Experiment: Induction of apoptosis in human MCF7 cells assessed as necrotic cells at 8.27 uM after 48 hrs by Annexin-V-FITC/propidium iodide staining based flow cytometry (reference value: 0.4 %)
Format: functional

Which Activity does the source give for `C[C@@H]1CC[C@@]2(OC1)O[C@H]1C[C@H]3[C@@H]4CC[C@H]5C[C@@H](O[C@@H]6O[C@H](CO)[C@H](O[C@@H]7O[C@H](CO)[C@@H](O)[C@H](O[C@@H]8OC[C@@H](O)[C@H](O)[C@H]8O)[C@H]7O[C@@H]7O[C@H](CO)[C@@H](O)[C@H](O)[C@H]7O)[C@H](O)[C@H]6O)CC[C@]5(C)[C@H]4CC[C@]3(C)[C@H]1[C@@H]2C` [DEGALACTOTIGONIN] here?
The Activity was 0%.
